These results are taken from US20140296266A1, “THERAPEUTIC COMPOUNDS” (Gilead Sciences, Inc., priority 2013, published 2014).

Data set [1] deals with HIV-IIIb. In words: Test A: Antiviral Assay in MT4 Cells. In kind it is cell-based, HIV-1. To be noted: MT-4 cells mixed with HIV-IIIb (m.o.i. 0.003), 5 days, CellTiter-Glo, calculated from the dose response curve; for inhibition at 2 µM: Human immunodeficiency virus 1, IIIB, MT4, 120 h, read-out: % inhibition at 2 μM (percent inhibition of virus-induced cell killing), 2 μM drug concentration. The method, then:
(§1) For the antiviral assay, 40 μL of 1× test concentration of 3-fold serially diluted compound in culture medium with 10% FBS was added to each well of a 384-well plate (10 concentrations) in quadruplicate. MT-4 cells were next mixed with HIV-IIIb at an m.o.i of 0.003 for 1 hour, after which time 35 μL of virus/cell mixture (2000 cells) was immediately added to each well containing 40 μL of diluted compound. The plates were then incubated at 37° C. for 5 days. After 5 days of incubation, 25 μl of 2× concentrated CellTiter-Glo™ Reagent (catalog #G7571, Promega Biosciences, Inc., Madison, Wis.) was added to each well containing MT-4 cells. Cell lysis was carried out by incubating at room temperature for 10 min and then chemiluminescence was read.

A short description of data set [2]: Test B: Cytotoxicity Assay. In kind it is cell-based. To be noted: human, uninfected MT-4 cells, same protocol as Test A, CellTiter-Glo. The method, then: as §1
Compound cytotoxicity and the corresponding CC50 values was determined using the same protocol as described in the antiviral assay (Test A) except that uninfected cells were used.
On the technique in general: In ATP-based viability assays light output follows the ATP content of the culture.

Broadly, the CC50 is the concentration that lowers cell viability or growth by half. Low readings indicate harm at low concentration, high ones better tolerance by the cells. Turning to `CC(C)(O)C#Cc1ccc(-c2cccc3c2CNC3=O)c([C@H](Cc2cc(F)cc(F)c2)NC(=O)Cn2nc(C(F)(F)F)c3c2C(F)(F)[C@@H]2C[C@H]32)n1` [Compound 14E, 2-((3bS,4aR)-5,5-difluoro-3-(trifluoromethyl)-3b,4,4a,5-tetrahydro-1H-cyclopropa[3,4]cyclopenta[1,2-c]pyrazol-1-yl)-N—((S)-2-(3,5-difluorophenyl)-1-(6-(3-hydroxy-3-methylbut-1-yn-1-yl)-3-(1-oxoisoindolin-4-yl)pyridin-2-yl)ethyl)acetamide], the inhibition at 2 µM in data set [1] was 89%. For the same compound, it took 6.82 µM to reach half-maximal cytotoxicity in data set [2] (CC50 at 5 days).

The compound `CC(C)(O)C#Cc1ccc(-c2ccc(F)c(C(N)=O)c2)c([C@H](Cc2cc(F)cc(F)c2)NC(=O)Cn2nc(C(F)(F)F)c3c2C(F)(F)[C@@H]2C[C@H]32)n1` [Compound 18, 5-(2-((S)-1-(2-((3bS,4aR)-5,5-difluoro-3-(trifluoromethyl)-3b,4,4a,5-tetrahydro-1H-cyclopropa[3,4]cyclopenta[1,2-c]pyrazol-1-yl)acetamido)-2-(3,5-difluorophenyl)ethyl)-6-(3-hydroxy-3-methylbut-1-yn-1-yl)pyridin-3-yl)-2-fluorobenzamide] yielded a CC50 at 5 days in data set [2] of 6.93 µM. That is a single-digit micromolar value.

`COc1cc(-c2ccc(-c3ccc4c(c3)C(=O)NC4)c([C@H](Cc3cc(F)cc(F)c3)NC(=O)Cn3nc(C(F)F)c4c3C(F)(F)CCC4(F)F)n2)ccn1` [Compound 8C, (S)-2-(3-(difluoromethyl)-4,4,7,7-tetrafluoro-4,5,6,7-tetrahydro-1H-indazol-1-yl)-N-(2-(3,5-difluorophenyl)-1-(2′-methoxy-5-(3-oxoisoindolin-5-yl)-[2,4′-bipyridin]-6-yl)ethyl)acetamide]: in data set [1], the inhibition at 2 µM is 86%. Moreover, in data set [2], the CC50 at 5 days came to 22 µM.

As to `CC(C)(O)C#Cc1ccc(-c2ccc3c(c2)C(=O)NC3)c([C@H](Cc2cc(F)cc(F)c2)NC(=O)Cn2nc(C(F)F)c3c2C(F)(F)CCC3(F)F)n1` [Compound 9B, (S)-2-(3-(difluoromethyl)-4,4,7,7-tetrafluoro-4,5,6,7-tetrahydro-1H-indazol-1-yl)-N-(2-(3,5-difluorophenyl)-1-(6-(3-hydroxy-3-methylbut-1-yn-1-yl)-3-(3-oxoisoindolin-5-yl)pyridin-2-yl)ethyl)acetamide], the inhibition at 2 µM in data set [1] was 95%. For the same compound, the midpoint of cytotoxicity in data set [2], the CC50 at 5 days, lay at 14.6 µM.

Turning to `CC(C)(O)C#Cc1ccc(-c2cccc3c(=O)[nH]c(=O)[nH]c23)c([C@H](Cc2cc(F)cc(F)c2)NC(=O)Cn2nc(C(F)(F)F)c3c2C(F)(F)[C@@H]2C[C@H]32)n1` [Compound 17, 2-((3bS,4aR)-5,5-difluoro-3-(trifluoromethyl)-3b,4,4a,5-tetrahydro-1H-cyclopropa[3,4]cyclopenta[1,2-c]pyrazol-1-yl)-N—((S)-2-(3,5-difluorophenyl)-1-(3-(2,4-dioxo-1,2,3,4-tetrahydroquinazolin-8-yl)-6-(3-hydroxy-3-methylbut-1-ynyl)pyridin-2-yl)ethyl)acetamide], the inhibition at 2 µM in data set [1] was 80%. In data set [2], this compound showed a CC50 at 5 days of 12.6 µM.

Regarding `O=C(Cn1nc(C(F)F)c2c1C(F)(F)CCC2(F)F)N[C@@H](Cc1cc(F)cc(F)c1)c1nc(-c2ccc3c(c2)C(=O)NC3)ccc1-c1ccc2c(c1)C(=O)NC2` [Compound 6, (S)—N-(1-(3,6-bis(3-oxoisoindolin-5-yl)pyridin-2-yl)-2-(3,5-difluorophenyl)ethyl)-2-(3-(difluoromethyl)-4,4,7,7-tetrafluoro-4,5,6,7-tetrahydro-1H-indazol-1-yl)acetamide], in data set [1], the inhibition at 2 µM was 73%. For the same compound, in data set [2], the CC50 at 5 days is more than 53.2 µM.

`NC(=O)c1ccc(-c2cnc3[nH]ccc3c2)c([C@H](Cc2cc(F)cc(F)c2)NC(=O)Cn2nc(C(F)F)c3c2C(F)(F)CCC3(F)F)n1` [Compound 1B, (S)-6-(1-(2-(3-(difluoromethyl)-4,4,7,7-tetrafluoro-4,5,6,7-tetrahydro-1H-indazol-1-yl)acetamido)-2-(3,5-difluorophenyl)ethyl)-5-(1H-pyrrolo[2,3-b]pyridin-5-yl)picolinamide]: in data set [1], the inhibition at 2 µM was 77%. Further, in data set [2], the CC50 at 5 days turned out to be 8.57 µM.

In the case of `O=C(Cn1nc(C(F)F)c2c1C(F)(F)CCC2(F)F)N[C@@H](Cc1cc(F)cc(F)c1)c1ncc(-c2cnc3[nH]ccc3c2)cc1-c1cnc2[nH]ccc2c1` [Compound 11, (S)—N-(1-(3,5-di(1H-pyrrolo[2,3-b]pyridin-5-yl)pyridin-2-yl)-2-(3,5-difluorophenyl)ethyl)-2-(3-(difluoromethyl)-4,4,7,7-tetrafluoro-4,5,6,7-tetrahydro-1H-indazol-1-yl)acetamide], the inhibition at 2 µM in data set [1] is 66%. This compound also showed a CC50 at 5 days in data set [2] of more than 53.2 µM.

In general, % inhibition refers to the change of the read-out against control, counted positive when it falls. As for `O=C(Cn1nc(C(F)F)c2c1C(F)(F)CCC2(F)F)N[C@@H](Cc1cc(F)cc(F)c1)c1nc(-c2c[nH]nn2)ccc1-c1cnc2[nH]ccc2c1` [Compound 16C], in data set [1] (2 μM drug concentration), the “% inhibition at 2 μM (percent inhibition of virus-induced cell killing)” value is listed as 65%.

For `O=C(Cn1nc(C(F)F)c2c1C(F)(F)CCC2(F)F)N[C@@H](Cc1cc(F)cc(F)c1)c1nc(-c2cc[nH]c(=O)c2)ccc1-c1cc[nH]c(=O)c1` [Compound 13, (S)-2-(3-(difluoromethyl)-4,4,7,7-tetrafluoro-4,5,6,7-tetrahydro-1H-indazol-1-yl)-N-(2-(3,5-difluorophenyl)-1-(2,2″-dioxo-1,1″,2,2″-tetrahydro-[4,2′:5′,4″-terpyridin]-6′-yl)ethyl)acetamide], in data set [1], the inhibition at 2 µM was 0%. Further, the CC50 at 5 days in data set [2] was more than 53.2 µM.

Turning to `CC(C)(O)C#Cc1ccc(-c2ccc3c(c2)C(=O)NC32CC2)c([C@H](Cc2cc(F)cc(F)c2)NC(=O)Cn2nc(C(F)(F)F)c3c2C(F)(F)[C@@H]2C[C@H]32)n1` [Compound 3D, 2-((3bS,4aR)-5,5-difluoro-3-(trifluoromethyl)-3b,4,4a,5-tetrahydro-1H-cyclopropa[3,4]cyclopenta[1,2-c]pyrazol-1-yl)-N—((S)-2-(3,5-difluorophenyl)-1-(6-(3-hydroxy-3-methylbut-1-yn-1-yl)-3-(3′-oxospiro[cyclopropane-1,1′-isoindolin]-5′-yl)pyridin-2-yl)ethyl)acetamide], in data set [1], the inhibition at 2 µM is 82%. In addition, in data set [2], it took 4.15 µM to reach half-maximal cytotoxicity (CC50 at 5 days).

For the compound `O=C(Cn1nc(C(F)F)c2c1C(F)(F)CCC2(F)F)N[C@@H](Cc1cc(F)cc(F)c1)c1nc(-c2cc[nH]c(=O)c2)ccc1-c1ccc2c(c1)C(=O)NC2` [Compound 12, (S)-2-(3-(difluoromethyl)-4,4,7,7-tetrafluoro-4,5,6,7-tetrahydro-1H-indazol-1-yl)-N-(2-(3,5-difluorophenyl)-1-(2′-oxo-5-(3-oxoisoindolin-5-yl)-1′,2′-dihydro-[2,4′-bipyridin]-6-yl)ethyl)acetamide], in data set [1], the inhibition at 2 µM was 58%. Moreover, the CC50 at 5 days in data set [2] was more than 53.2 µM.

For the compound `NC(=O)c1cc(-c2ccc(-c3ccc(F)c(C(N)=O)c3)c([C@H](Cc3cc(F)cc(F)c3)NC(=O)Cn3nc(C(F)F)c4c3C(F)(F)CCC4(F)F)n2)ccc1F` [Compound 5G, (S)-5,5′-(6-(1-(2-(3-(difluoromethyl)-4,4,7,7-tetrafluoro-4,5,6,7-tetrahydro-1H-indazol-1-yl)acetamido)-2-(3,5-difluorophenyl)ethyl)pyridine-2,5-diyl)bis(2-fluorobenzamide)], in data set [2], the CC50 at 5 days was more than 53.2 µM.
